System: UUO-induced renal fibrosis
Test: UUO-induced renal fibrosis, Masson Trichrome staining of kidney sections with image analysis
Format: in vivo, Sprague Dawley rats
Conditions: rat UUO kidney, day 14; hSAP 2 mg/kg iv q2d days 0-12; enalapril 200 mg/L in drinking water; HSA control approximately 22%, uninjured kidney approximately 5%
Procedure: Unilateral Ureter Obstruction (UUO) in the rat is a suitable model of renal fibrosis'. Renal fibrosis was induced in Sprague Dawley rats weighing 200-250 grams. Rats were anesthetized with ketamine (100 mg/kg) and xylazine (5 mg/kg). All surgical procedures were conducted using aseptic techniques.
The left kidney, renal artery and vein were exposed and the ureter occluded using suture. The surgical site was then sutured closed.
Human serum albumin in PBS (group 1) or hSAP in PBS (groups 2-5) was given to animals by intravenous (iv) injection every other day from day 0 to day 12 as detailed in Table 4. Enalapril was be added to the drinking water of animals in groups 2, 5 and 6, beginning on the day of study and continuing until sacrifice (day 14).
On day 14, animals were sacrificed and both the left occluded and right contralateral control kidneys excised.
To determine the extent of fibrosis induced by 14 days of UUO, kidney sections from all groups of animals were stained with Masson Trichrome and the extent of Trichrome positivity determined using image analysis (see FIG. 1). […] However, there was a significant inhibition in Trichrome staining in the animals treated with the combination of enalapril and hSAP (p<0.05; approximately 10%). […]

Molecule	extent of Trichrome staining (collagen deposition in the kidney)
CCOC(=O)[C@H](CCc1ccccc1)N[C@@H](C)C(=O)N1CCC[C@H]1C(=O)O [enalapril]	approximately 15%
hSAP: human serum amyloid P, a pentraxin family protein that suppresses fibrocyte differentiation	approximately 25%

From patent publication US8247370B2, “Conjoint therapy for treating fibrotic diseases” (Promedior, Inc., priority 2006, dated 2012)
